Source: ChEMBL document CHEMBL5126584, “Synthesis of AC1903 analogs as potent transient receptor potential canonical channel 4/5 inhibitors and biological evaluation” (Bioorg Med Chem, 2022)
The source made the active and inactive calls. The calls are words filed in the database; no cut-off is given here.

How the values were obtained:
[1] = molecular target: T1, Short transient receptor potential channel 5 (Homo sapiens, UniProt Q9UL62); test: Inhibition of human TRPC5 channel expressed in HEK293 cells assessed as inhibition of EA-evoked Calcium influx by measuring reduction in intracellular Ca2+ level and measured upto 360 sec by Fluo-4/AM dye based FLIPR assay; type: cell-based
T1 sequence (Q9UL62 whole entry): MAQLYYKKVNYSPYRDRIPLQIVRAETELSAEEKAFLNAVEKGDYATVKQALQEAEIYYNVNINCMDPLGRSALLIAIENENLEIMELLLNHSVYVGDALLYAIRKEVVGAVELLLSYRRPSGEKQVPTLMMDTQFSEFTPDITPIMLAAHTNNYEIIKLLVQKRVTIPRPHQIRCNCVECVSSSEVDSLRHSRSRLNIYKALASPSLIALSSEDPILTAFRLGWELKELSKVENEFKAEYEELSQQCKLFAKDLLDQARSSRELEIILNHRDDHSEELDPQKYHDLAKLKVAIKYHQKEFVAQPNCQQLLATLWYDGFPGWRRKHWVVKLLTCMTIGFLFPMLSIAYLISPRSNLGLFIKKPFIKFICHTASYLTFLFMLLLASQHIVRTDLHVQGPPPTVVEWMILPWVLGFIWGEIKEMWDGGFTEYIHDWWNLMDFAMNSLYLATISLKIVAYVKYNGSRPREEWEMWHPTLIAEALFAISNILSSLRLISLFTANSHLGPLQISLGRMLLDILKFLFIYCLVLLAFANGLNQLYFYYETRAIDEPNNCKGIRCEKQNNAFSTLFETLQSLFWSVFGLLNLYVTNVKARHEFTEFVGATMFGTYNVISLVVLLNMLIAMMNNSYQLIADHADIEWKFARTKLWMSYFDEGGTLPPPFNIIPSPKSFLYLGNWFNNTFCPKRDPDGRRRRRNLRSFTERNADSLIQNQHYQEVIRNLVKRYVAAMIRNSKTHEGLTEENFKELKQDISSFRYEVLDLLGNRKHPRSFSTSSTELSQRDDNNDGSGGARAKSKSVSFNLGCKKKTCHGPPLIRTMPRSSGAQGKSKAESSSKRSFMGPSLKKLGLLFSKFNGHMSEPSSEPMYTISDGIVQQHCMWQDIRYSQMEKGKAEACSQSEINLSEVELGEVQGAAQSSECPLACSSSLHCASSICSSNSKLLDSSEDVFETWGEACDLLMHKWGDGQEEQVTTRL

[2] = molecular target: T2, Short transient receptor potential channel 4 (Homo sapiens, UniProt Q9UBN4); test: Inhibition of human TRPC4 channel expressed in HEK293 cells assessed as inhibition of EA-evoked Calcium influx by measuring reduction in intracellular Ca2+ level and measured upto 360 sec by Fluo-4/AM dye based FLIPR assay; type: cell-based
T2 sequence (Q9UBN4 whole entry): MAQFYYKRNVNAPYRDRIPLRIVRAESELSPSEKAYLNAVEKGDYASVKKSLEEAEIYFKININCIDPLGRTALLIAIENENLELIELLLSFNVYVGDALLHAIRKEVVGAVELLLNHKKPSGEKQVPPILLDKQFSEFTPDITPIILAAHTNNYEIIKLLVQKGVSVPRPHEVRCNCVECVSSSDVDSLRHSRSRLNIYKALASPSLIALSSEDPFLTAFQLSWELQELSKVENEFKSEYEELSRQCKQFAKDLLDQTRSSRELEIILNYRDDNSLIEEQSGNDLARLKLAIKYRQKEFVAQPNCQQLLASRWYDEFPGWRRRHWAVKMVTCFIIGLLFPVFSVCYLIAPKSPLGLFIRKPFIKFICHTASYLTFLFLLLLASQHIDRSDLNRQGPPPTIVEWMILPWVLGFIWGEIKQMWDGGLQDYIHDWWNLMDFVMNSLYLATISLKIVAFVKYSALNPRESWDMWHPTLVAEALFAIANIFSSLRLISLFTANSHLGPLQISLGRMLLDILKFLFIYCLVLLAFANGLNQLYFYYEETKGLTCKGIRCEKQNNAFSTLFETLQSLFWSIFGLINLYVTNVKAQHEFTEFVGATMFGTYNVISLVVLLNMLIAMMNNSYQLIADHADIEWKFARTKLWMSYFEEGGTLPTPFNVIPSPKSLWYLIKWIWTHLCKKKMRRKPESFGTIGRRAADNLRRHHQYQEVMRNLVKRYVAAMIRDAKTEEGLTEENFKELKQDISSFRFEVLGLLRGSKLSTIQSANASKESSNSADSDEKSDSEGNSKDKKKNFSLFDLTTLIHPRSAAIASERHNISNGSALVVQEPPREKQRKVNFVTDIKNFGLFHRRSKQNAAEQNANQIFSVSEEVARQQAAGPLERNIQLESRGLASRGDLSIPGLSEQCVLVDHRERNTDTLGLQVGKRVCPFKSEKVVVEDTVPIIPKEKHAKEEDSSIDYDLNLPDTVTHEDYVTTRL

MPC-5 [3] = test: Protective effect against protamine sulfate induced cytoskeleton rearrangement in mouse MPC-5 cell assessed as reduction in aggregated stress fibers at 1 to 3 uM pretreatment followed by PS stimulation and measured after 2 hrs by phalloidin and Hoechst 33342 staining based fluorescence analysis; type: functional; settings: dose 1-3 µM
HaCaT [4] = test: Inhibition of IL-17 induced cell proliferation in human HaCaT cells assessed as decrease in BrdU positive (BrdU+) cells at 0.3 to 3 uM and measured after 24 hrs by BrdU incorporation assay; type: functional, cell-based; settings: dose 0.3-3 µM
HaCaT [5] = test: Inhibition of IL-17 induced inflammation in human HaCaT cells assessed as reduction in IL-6 mRNA level at 0.3 to 3 uM by qRT-PCR analysis; type: functional, cell-based; settings: dose 0.3-3 µM
HaCaT [6] = test: Inhibition of IL-17 induced inflammation in human HaCaT cells assessed as reduction in IL-8 mRNA level at 0.3 to 3 uM by qRT-PCR analysis; type: functional, cell-based; settings: dose 0.3-3 µM
HaCaT [7] = test: Inhibition of IL-17 induced inflammation in human HaCaT cells assessed as reduction in CCL-20 mRNA level at 0.3 to 3 uM by qRT-PCR analysis; type: functional, cell-based; settings: dose 0.3-3 µM
MPC-5 [8] = test: Protective effect against protamine sulfate induced cytoskeleton rearrangement in mouse MPC-5 cell assessed as reduction in aggregated stress fibers at 10 uM pretreatment followed by PS stimulation and measured after 2 hrs by phalloidin and Hoechst 33342 staining based fluorescence analysis; type: functional
HaCaT [9] = test: Inhibition of IL-17 induced cell proliferation in human HaCaT cells assessed as decrease in BrdU positive (BrdU+) cells at 10 uM and measured after 24 hrs by BrdU incorporation assay; type: functional, cell-based

Row | IC50 [1] | Compound | other results
1 | 2930 nM | CCc1ccc2c(c1)nc(NCc1ccc(C)o1)n2Cc1ccccc1 | –
2 | 2300 nM | CCc1ccc(Cn2c(NCc3ccco3)nc3cc(CC)ccc32)cc1 | –
3 | 920 nM | CCc1ccc2c(c1)nc(NCc1ccco1)n2Cc1ccc(OC(F)(F)F)cc1 | –
4 | 4630 nM | CCc1ccc2c(c1)nc(NCc1ccco1)n2Cc1ccc(C)cc1 | –
5 | 1350 nM | CCc1ccc2c(c1)nc(NCc1ccco1)n2Cc1ccc(C(F)(F)F)cc1 | –
6 | 540 nM | CCc1ccc2c(c1)nc(NCc1ccco1)n2Cc1ccccc1 | IC50 [2]: 2060 nM; Activity (MPC-5 [3]): Active; inhibition (HaCaT [4]): Active; inhibition (HaCaT [5]): Active; inhibition (HaCaT [6]): Active; inhibition (HaCaT [7]): Active
7 | > 10000 nM | CCc1ccc2nc(NCc3ccco3)n(Cc3ccccc3)c2c1 | –
8 | 1020 nM | CCc1ccc2c(c1)nc(NCCc1ccco1)n2Cc1ccccc1 | –
9 | 960 nM | CCc1ccc2c(c1)nc(NCc1ccco1)n2Cc1ccc(F)cc1 | –
10 | 2240 nM | CCc1ccc2c(c1)nc(NCc1ccco1)n2Cc1cccc(C(F)(F)F)c1 | –
11 | 2210 nM | CCc1ccc2c(c1)nc(NCc1ccco1)n2Cc1ccc(OC)cc1 | –
12 | 1340 nM | CCCc1ccc2c(c1)nc(NCc1ccco1)n2Cc1ccccc1 | –

More lines, now with the values behind:

Row | Compound | IC50 [1] | other results
13 | Cc1ccc2c(c1)nc(NCc1ccco1)n2Cc1ccccc1 | 670 nM | –
14 | CC(C)c1ccc2c(c1)nc(NCc1ccco1)n2Cc1ccccc1 | 570 nM | –
15 | CCc1ccc2c(c1)nc(N1CCN(C)CC1)n2Cc1ccccc1 | > 10000 nM | –
16 | CCc1ccc2c(c1)nc(N1CCOCC1)n2Cc1ccccc1 | > 10000 nM | –
17 | CCc1ccc2c(c1)nc(NCc1ccco1)n2Cc1ccccc1C(F)(F)F | > 10000 nM | –
18 | Oc1ccc2c(c1)nc(NCc1ccco1)n2Cc1ccccc1 | > 10000 nM | –
19 | CCc1ccc2c(c1)nc(NCCN1CCOCC1)n2Cc1ccccc1 | 2640 nM | –
20 | CCc1ccc2c(c1)nc(N1CCC3(CCCO3)CC1)n2Cc1ccccc1 | > 10000 nM | –
21 | CCc1ccc2c(c1)nc(N1CCC(C)CC1)n2Cc1ccccc1 | > 10000 nM | –
22 | CCc1ccc2c(c1)nc(NCc1cccs1)n2Cc1ccccc1 | 2410 nM | –
23 | CCc1ccc2c(c1)nc(N1CC3(COC3)C1)n2Cc1ccccc1 | > 10000 nM | –
24 | CCc1ccc2c(c1)nc(NCCN1CCCCC1)n2Cc1ccccc1 | 3350 nM | –
25 | C=Cc1ccc2c(c1)nc(NCc1ccco1)n2Cc1ccccc1 | > 10000 nM | –
26 | c1ccc(Cn2c(NCc3ccco3)nc3cc(C4CC4)ccc32)cc1 | 820 nM | –
27 | Cc1ccc2nc(NCc3ccco3)n(Cc3ccccc3)c2c1 | > 10000 nM | –
28 | CCc1ccc2c(c1)nc(NCc1ccc(Cl)o1)n2Cc1ccccc1 | 2210 nM | –
29 | C#Cc1ccc2c(c1)nc(NCc1ccco1)n2Cc1ccccc1 | > 10000 nM | –
30 | c1ccc(Cn2c(NCc3ccco3)nc3ccccc32)cc1 | 65000 nM | IC50 [2]: 77200 nM; Activity (MPC-5 [8]): Active; inhibition (HaCaT [9]): Active
31 | CCc1ccc2c(c1)nc(NCc1ccccn1)n2Cc1ccccc1 | 3130 nM | –
32 | CCc1ccc2c(c1)nc(NCC1CCCO1)n2Cc1ccccc1 (stereo not given) | 1820 nM | –
33 | CCc1ccc2c(c1)nc(NCC1CCOC1)n2Cc1ccccc1 (stereo not given) | 2270 nM | –
34 | CCc1ccc2c(c1)nc(NCc1ccc(C#N)o1)n2Cc1ccccc1 | > 10000 nM | –
35 | CCc1ccc2c(c1)nc(N1CC3CCC(C1)O3)n2Cc1ccccc1 | > 10000 nM | –
36 | CCc1ccc2c(c1)nc(NCCc1ccncc1)n2Cc1ccccc1 | 2950 nM | –
